# Read-outs that look alike come from different tables or passages of the source.
# Legend:
# C. elegans = C. elegans motor phenotype scoring on solid media (Punc/jerky-unc, coiled, paralyzed), wild-type young adults; type: in vivo, Caenorhabditis elegans; conditions: for any phene (mean % fraction of young adults exhibiting any phenotype: coiled, jerky-Unc or paralyzed): one hour, mean of three biological replicates; for EC50: Caenorhabditis elegans, read-out: C. elegans - motor disruption EC50
# [1] = test system: Dirofilaria immitis microfilariae; assay: Dirofilaria immitis microfilariae immobility assay (DiroImager, 72 h); conditions: for % effect (motility), DIROIM MF: Dirofilaria immitis microfilariae
# Method in brief: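 About 250 freshly purified microfilariae of the Missouri isolate per well in supplemented RPMI 1640, exposed to compound for 72 h. Motility scored by automated whole-plate optical imaging; medium with 1% DMSO as negative control.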
# [2] = test system: Dirofilaria immitis L3/L4; assay: Dirofilaria immitis L3/L4 motility assay (DiroImager, 72 h); conditions: Dirofilaria immitis L4
# Pristionchus pacificus = Pristionchus pacificus motor disruption dose-response on solid media, 1 h; conditions: for mean % any phene (coiled, jerky-Unc or paralyzed): Pristionchus pacificus young adults, mean of three biological replicates; for EC50: Pristionchus pacificus, 1 h, read-out: P. pacificus motor disruption EC50; for rep 1 atypical locomotion / rep 1 coiled / rep 1 no phene / rep 1 paralyzed / rep 2 atypical locomotion / rep 2 coiled / rep 2 no phene / rep 2 paralyzed: count of 20 animals per trial, one hour
# Procedure: Locomotor phenotype analyses were done in 24-well plates with 1 mL of MYOB substrate (27.5 g Trizma HCl, 12 g Trizma Base, 230 g bacto tryptone, 10 g NaCl, 0.4 g cholesterol (95%)) seeded with 25 µL of OP50 Escherichia coli on each well. Each compound was added to the MYOB substrate before pouring to achieve the desired final concentrations of 30 µM or 60 µM after diffusion through the media. Synchronized young adult worms are transferred into each well using a platinum wire pick. A Leica MZ75 stereomicroscope was used to visualize the movement of worms on the solid substrate. The specific dominant locomotor phenotype (i.e. ‘Punc’, ‘paralyzed’, ‘coiler’ or ‘wild-type locomotion’) was scored after the touch on the head with a platinum wire over a ~3–5 s of observation. […] Coiled animals were not scored as paralyzed despite sometimes not responding to light touch.
# [3] = 3.75uM, third c14 line of each analog
# [4] = 15uM, second c14 line of each analog
# [5] = 60uM, first c14 line of each analog
# [6] = conc 3.75, observed at one hour
# [7] = any motor phenotype after 1 h on solid media, ± 95% CI
smiles,measurement,setting,value
Cc1cccc(CN2CCN(c3ccc([N+](=O)[O-])cc3)CC2)c1 [Nemacol-40],"any phene (mean % fraction of young adults exhibiting any phenotype: coiled, jerky-Unc or paralyzed)",C. elegans; [3],5%
same,"any phene (mean % fraction of young adults exhibiting any phenotype: coiled, jerky-Unc or paralyzed)",C. elegans; [4],14.1667%
same,"any phene (mean % fraction of young adults exhibiting any phenotype: coiled, jerky-Unc or paralyzed)",C. elegans; [5],37.5%
same,EC50,C. elegans; 1 h,> 60 µM
same,"% effect (motility), DIROIM MF",[1]; 0.016 µM,0%
same,"% effect (motility), DIROIM MF",[1]; 0.08 µM,0%
same,"% effect (motility), DIROIM MF",[1]; 0.4 µM,0%
same,"% effect (motility), DIROIM MF",[1]; 2 µM,0%
same,"% effect (motility), DIROIM MF",[1]; 10 µM,40%
same,EC50,"[1]; Dirofilaria immitis, 72 h, read-out: Dirofilaria immitis filariae EC50",10.7 µM
same,"% effect (motility), DIROIM L4",[2]; 2 µM,0%
same,"% effect (motility), DIROIM L4",[2]; 10 µM,10%
same,"% effect (motility), DIROIM L4",[2]; 50 µM,100%
same,"mean % any phene (coiled, jerky-Unc or paralyzed)",Pristionchus pacificus; [6],5%
same,"mean % any phene (coiled, jerky-Unc or paralyzed)","Pristionchus pacificus; conc 15, observed at one hour",4.167%
same,"mean % any phene (coiled, jerky-Unc or paralyzed)","Pristionchus pacificus; conc 60, observed at one hour",11.9444%
same,EC50,Pristionchus pacificus,> 60 µM
CC1CCC(N2CCN(c3ccc(Cl)cc3)CC2)C1 (stereo not drawn) [Nemacol-44],"any phene (mean % fraction of young adults exhibiting any phenotype: coiled, jerky-Unc or paralyzed)",C. elegans; [3],80%
same,"any phene (mean % fraction of young adults exhibiting any phenotype: coiled, jerky-Unc or paralyzed)",C. elegans; [4],100%
same,"any phene (mean % fraction of young adults exhibiting any phenotype: coiled, jerky-Unc or paralyzed)",C. elegans; [5],100%
same,EC50,C. elegans; [7],3.4 µM
same,"% effect (motility), DIROIM MF",[1]; 0.016 µM,0%
same,"% effect (motility), DIROIM MF",[1]; 0.08 µM,0%
same,"% effect (motility), DIROIM MF",[1]; 0.4 µM,0%
same,"% effect (motility), DIROIM MF",[1]; 2 µM,0%
same,"% effect (motility), DIROIM MF",[1]; 10 µM,0%
same,"% effect (motility), DIROIM L4",[2]; 2 µM,0%
same,"% effect (motility), DIROIM L4",[2]; 10 µM,0%
same,"% effect (motility), DIROIM L4",[2]; 50 µM,10%
same,"mean % any phene (coiled, jerky-Unc or paralyzed)",Pristionchus pacificus; [6],63.3333%
same,"mean % any phene (coiled, jerky-Unc or paralyzed)","Pristionchus pacificus; conc 15, observed at one hour",90.7456%
same,"mean % any phene (coiled, jerky-Unc or paralyzed)","Pristionchus pacificus; conc 60, observed at one hour",100%
same,EC50,Pristionchus pacificus,2.5 ± 1 µM
same,rep 1 atypical locomotion,Pristionchus pacificus; conc 3.75,3
same,rep 1 coiled,Pristionchus pacificus; conc 3.75,0
same,rep 1 no phene,Pristionchus pacificus; conc 3.75,17
same,rep 1 paralyzed,Pristionchus pacificus; conc 3.75,0
same,rep 2 atypical locomotion,Pristionchus pacificus; conc 3.75,10
same,rep 2 coiled,Pristionchus pacificus; conc 3.75,8
same,rep 2 no phene,Pristionchus pacificus; conc 3.75,2
same,rep 2 paralyzed,Pristionchus pacificus; conc 3.75,0
same,rep 1 atypical locomotion,Pristionchus pacificus; conc 15,13
same,rep 1 coiled,Pristionchus pacificus; conc 15,7
same,rep 1 no phene,Pristionchus pacificus; conc 15,0
same,rep 1 paralyzed,Pristionchus pacificus; conc 15,0
same,rep 2 atypical locomotion,Pristionchus pacificus; conc 15,0
same,rep 2 coiled,Pristionchus pacificus; conc 15,14
same,rep 2 no phene,Pristionchus pacificus; conc 15,0
same,rep 2 paralyzed,Pristionchus pacificus; conc 15,6
same,rep 1 atypical locomotion,Pristionchus pacificus; conc 60,2
same,rep 1 coiled,Pristionchus pacificus; conc 60,5
same,rep 1 no phene,Pristionchus pacificus; conc 60,0
same,rep 1 paralyzed,Pristionchus pacificus; conc 60,13
same,rep 2 atypical locomotion,Pristionchus pacificus; conc 60,1
same,rep 2 coiled,Pristionchus pacificus; conc 60,7
same,rep 2 no phene,Pristionchus pacificus; conc 60,0
same,rep 2 paralyzed,Pristionchus pacificus; conc 60,12
FC(F)(F)c1cccc(N2CCN(CC3CC4C=CC3C4)CC2)c1 (stereo not drawn) [Nemacol-47],"any phene (mean % fraction of young adults exhibiting any phenotype: coiled, jerky-Unc or paralyzed)",C. elegans; [3],34.1667%
same,"any phene (mean % fraction of young adults exhibiting any phenotype: coiled, jerky-Unc or paralyzed)",C. elegans; [4],81.6667%
same,"any phene (mean % fraction of young adults exhibiting any phenotype: coiled, jerky-Unc or paralyzed)",C. elegans; [5],100%
same,EC50,C. elegans; [7],5.7 ± 1.7 µM
same,"% effect (motility), DIROIM MF",[1]; 0.016 µM,0%
same,"% effect (motility), DIROIM MF",[1]; 0.08 µM,0%
same,"% effect (motility), DIROIM MF",[1]; 0.4 µM,0%
same,"% effect (motility), DIROIM MF",[1]; 2 µM,0%
same,"% effect (motility), DIROIM MF",[1]; 10 µM,0%
same,"% effect (motility), DIROIM L4",[2]; 10 µM,0%
same,"% effect (motility), DIROIM L4",[2]; 50 µM,5%
same,"mean % any phene (coiled, jerky-Unc or paralyzed)",Pristionchus pacificus; [6],79.1667%
same,"mean % any phene (coiled, jerky-Unc or paralyzed)","Pristionchus pacificus; conc 15, observed at one hour",100%
same,"mean % any phene (coiled, jerky-Unc or paralyzed)","Pristionchus pacificus; conc 60, observed at one hour",100%
same,EC50,Pristionchus pacificus,2.9 µM

# Reference: PMC10066365, “Nemacol is a small molecule inhibitor of C. elegans vesicular acetylcholine transporter with anthelmintic potential” (Nature Communications, 2023)
